Data published in PubChem BioAssay AID1626 (SRMLSC, 2009).

Test system: M. tuberculosis H37Rv growth inhibition
Experiment: M. tuberculosis H37Rv growth inhibitors, H37Rv strain (AID 1626)
Conditions: for IC90: measured here: IC90 against H37Rv; for CC50: measured here: Vero cell cytotoxicity

Row | SMILES | IC50 [µM] | IC90 [µM] | CC50 [µM]
1 | Cn1nc(-c2ccc(Cl)cc2)c2cc(C(=O)N3CCN(c4ccccn4)CC3)sc21 | 2.49 | 4.36 | > 40
2 | CCOC(=O)COc1ccc2c(=O)cc(-c3ccccc3)oc2c1 | < 0.195 | 0.963 | 
3 | CC1CCCCN1C(=O)COC(=O)/C=C/c1ccc2ccccc2n1 (stereo unspecified) | 0.807 | 5.9 | > 40
4 | CCOc1ccc(NC(=O)CCCc2cc(-c3ccc(OCC)cc3)on2)cc1 | 47.1 | > 100 | 
5 | N#Cc1ccc(/C=C/C(=O)c2ccc3c(c2)OCO3)cc1 |  | > 100 | 
6 | CCOC(=O)c1cn[nH]c1N |  | > 100 | 
7 | Cc1ccc(Cn2c(NC(=O)c3ccco3)nc3ccccc32)cc1 | 4.08 | > 100 | > 40
8 | Cc1ccc2nc(SCC(=O)Nc3ccc4c(c3)CCC4)[nH]c2c1 |  | > 100 | 
9 | CCOc1ccc(-c2cc(CCCC(=O)Nc3cccc(OC)c3)no2)cc1 | 10.7 | > 100 | > 40
10 | CCOc1ccc(N=c2scc(-c3ccccc3)n2CCO)cc1 | 35.1 | > 100 | 
11 | O=[N+]([O-])c1cc(CN2CCN(c3cccc(C(F)(F)F)c3)CC2)c2cccnc2c1O | 13.2 | > 100 | 1.49
12 | O=C(/C=C/c1cccc2ccccc12)c1ccncc1 | 8.2 | 12.7 | > 40
13 | CCCc1cc(C(=O)Nc2nccs2)cs1 | 17.7 | > 100 | 
14 | Cc1ccc(-c2nnc(SCC#CCOC(=O)c3ccco3)o2)cc1 | < 0.391 | 3.43 | 
15 | O=C(Oc1ccc(-c2cnc3ccccc3n2)cc1)c1ccc(Cl)c([N+](=O)[O-])c1 | 5.25 | 23.4 | 
16 | Cc1cc(C)n(-c2nc(SCC(=O)O)c3c4c(sc3n2)COC(C)(C)C4)n1 | 9.72 | > 100 | > 40
17 | Cc1ccc(NC(=O)c2ccc(CSc3nccc(C)n3)cc2)cc1 | 12.2 | > 100 | 
18 | COc1cc(/C=C(\C#N)C(=O)NC2CCCCC2C)ccc1OS(=O)(=O)c1ccc(C)cc1 (stereo unspecified) |  | > 100 | 9.49
19 | COc1ccc(C[C@H]2CN3C(=NC[C@@H]3Cc3ccc(O)cc3)N2C[C@H](C)NC(=O)c2ccc(C)c(Br)c2)cc1 | 6.33 | 9.21 | 
20 | O=C(CN1CCN(CC(=O)Nc2ccc(OCc3ccccc3)cc2)CC1)Nc1ccc(F)cc1 | 34.5 | > 100 | 
21 | Cc1nc(N)nc(N)c1/C=C/C(C)(C)c1ccc(Cl)cc1 | 0.562 | 1.29 | < 0.078

Row | SMILES | IC50 [µM] | IC90 [µM] | CC50 [µM]
22 | c1ccc(CCNc2ccnc3cc4ccccc4cc23)cc1 | 1.5 | 1.69 | 8.57
23 | COc1ccccc1-c1nnc(NC(=O)c2ccc3ncsc3c2)o1 | 4.17 | > 100 | 24.3
24 | CCCCC(=O)OCC(=O)Nc1ccc(SC(F)F)cc1 |  | > 100 | 
25 | O=c1c([N+](=O)[O-])cc(C(F)(F)F)cn1Cc1cccc(Cl)c1 | 8.56 | 22.2 | 
26 | CCCCOC(=O)c1ccc(NC(=O)C(=O)NCCN(CC)CC)cc1 | 35.7 | > 100 | 
27 | Cc1cc(Nc2ccccc2)n(-c2nc3ccccc3[nH]2)n1 | < 0.195 | 3.18 | > 40
28 | CCCC(=O)OCCNc1cc(Sc2nccn2C)c2nonc2c1[N+](=O)[O-] | 17.9 | 31.6 | 19.2
29 | Cc1ccc(-c2nnc3sc(C4COc5ccccc5O4)nn23)cc1 (stereo unspecified) | 4.77 | > 100 | 
30 | O=C(N[C@H](CO)[C@H](O)c1ccc([N+](=O)[O-])cc1)C(Cl)Cl | 4.82 | 7.7 | > 40
31 | COc1ccc(N2C(=O)C(F)(F)C2c2ccccc2F)cc1 (stereo unspecified) | 5.79 | 12.1 | 
32 | O=C(O)C1CCCCC1C(=O)Nc1ccccc1Nc1ccccc1 (stereo unspecified) |  | > 100 | 
33 | Cc1ccc2nc(/C(C#N)=C\c3ccc([N+](=O)[O-])o3)[nH]c2c1 | < 0.195 | < 0.195 | 3.11
34 | COc1ccc(C(CCN2CCCCC2)c2c(OC)cc(OC)c3c(-c4ccccc4)cc(=O)oc23)cc1 (stereo unspecified) | 7.16 | 10.9 | 16
35 | COc1cccc(/C=C/C(=O)c2cccc([N+](=O)[O-])c2)c1 | 6.89 | > 100 | 35.9
36 | Clc1ccc(-[n+]2c(-c3cccc(Br)c3)[nH]c3nc4ccccc4nc32)cc1 |  | > 100 | > 40
37 | COc1ccc(N2C(=O)NC(=O)/C(=C/c3cccc(OC(=O)c4cccs4)c3)C2=O)cc1Cl | 5.35 | 17.5 | 
38 | CCCCCC(=O)Nc1ccc2ccccc2c1 | < 0.195 | > 100 | 
39 | CS(=O)(=O)Nc1cccc2cccnc12 | 11.7 | 12.9 | > 40
40 | COc1ccc(C[C@H]2CN3C(=NC[C@H]3Cc3ccccc3)N2CCNC(=O)CCC2CCCCC2)cc1 | 10.9 | 12.3 | 29
41 | CCOc1ccc(NC(=O)CN2CCN(C3c4ccccc4-c4ccccc43)CC2)cc1 | 22.2 | > 100 | > 40
42 | COc1cc(-c2nc3ccc4ccccc4c3c3c2CCC3)cc(OC)c1O | 13.1 | 18.8 | > 40

Row | SMILES | IC50 [µM] | IC90 [µM] | CC50 [µM]
43 | CCCc1nc2sc3ccccc3c(=O)c2c(=O)n1Cc1ccc(OC)cc1 |  | > 100 | > 40
44 | CCOC(=O)c1nc2sc3c(c2c(=O)[nH]1)CCC(C)C3 (stereo unspecified) | 10.4 | > 100 | 
45 | CCCCc1ccc(NC=C2C(=O)OC3(CCCCC3)OC2=O)cc1 | 6.18 | > 100 | 
46 | Nc1cnc(-c2ccccc2)nc1Cl | 7.27 | > 100 | 
47 | CCCCNC(=O)COC(=O)c1cc(Br)ccc1Cl | 4.35 | 10.5 | 
48 | CCc1cccc2c(C(=O)COC(=O)c3ccc([N+](=O)[O-])s3)c[nH]c12 | < 0.195 | 0.99 | > 40
49 | CNC(=O)c1csc(-c2ccc(Cl)cc2)n1 | 38.6 | > 100 | 
50 | Cc1ccc(C(=O)CNc2ccc(C)c(Cl)c2)cc1 |  | > 100 | 
51 | c1coc(CNc2nc(N3CCCCC3)nc3ccccc23)c1 | 1.49 | 1.69 | > 40
52 | CCCCCCc1cc2cc(C(=O)NC)c(=N)oc2cc1O | 4.69 | 7.11 | 
53 | COc1cnc(-c2ccccn2)nc1Sc1ccccc1 | 2.66 | 4.96 | 8.62
54 | CCCN(CCC)C(=O)c1cc([N+](=O)[O-])cc2c1-c1ccc([N+](=O)[O-])cc1C2=C(C#N)C#N | 8 | 9.91 | 33.6
55 | Cc1ccc(Nc2nnc(SCC(=O)Nc3cccnc3Cl)s2)cc1C | 1.63 | 3.5 | 
56 | COc1cc2c(cc1NCc1ccccn1)oc1ccccc12 | 3.09 | 21.4 | 
57 | CC(C)=CCOc1ccc([C@@H]2COc3c(ccc4c3C=CC(C)(C)O4)C2)c(O)c1 | 19.4 | 60.9 | > 40
58 | Cc1ccc(-c2c[n+](CC(=O)N3c4ccccc4Sc4ccccc43)c3n2CCC3)cc1 | 7.87 | 20.6 | 
59 | CCOC(=O)c1cccc(N/C=C/C(=O)c2ccc(OC)c(OC)c2)c1 | 24 | > 100 | 
60 | c1ccc(C2=Nc3ccccc3OC2)cc1 | 4.73 | 8.31 | 
61 | O=C(CSc1nnc(NC(=O)c2ccccc2Cl)s1)Nc1ccc2c(c1)oc1ccccc12 |  |  | > 40
62 | CC(NC(=O)c1ccc([N+](=O)[O-])cc1[N+](=O)[O-])c1ccc(-c2ccccc2)cc1 (stereo unspecified) | 2.51 | > 100 | > 40
63 | O=C(COc1ccc(Cl)cc1)Nc1nnc(-c2ccc3c(c2)CCCC3)o1 | 54.3 | > 100 | > 40

Row | SMILES | IC50 [µM] | IC90 [µM] | CC50 [µM]
64 | COC(=O)CSc1nc2ccccc2nc1SCC(=O)OC | 4.87 | 12.5 | 
65 | COc1ccc(Nc2cc(C)nc(-n3nc(C)cc3C)n2)cc1 | 6.15 | > 100 | > 40
66 | CCC(=O)OCCNc1cc(Sc2nccn2C)c2nonc2c1[N+](=O)[O-] | 20.2 | 27.4 | 18.3
67 | COC(=O)C1C(O)=C(C=Nc2ccc3ccccc3c2)C(=O)CC1(C)C (stereo unspecified) | 33.7 | > 100 | 
68 | O=C(C1CCN(c2nnc(-n3cccc3)s2)CC1)N1CCN(c2cccc(C(F)(F)F)c2)CC1 | 0.258 | 1.05 | > 40
69 | COc1ccc(NC(=O)COc2ccc3c(c2)CCC3)cc1 | 16.4 | > 100 | 
70 | CCCCCc1cc(=O)oc2c(C(CCN3CCCC(C)C3)c3ccc(OC)cc3)c(OC)cc(OC)c12 (stereo unspecified) | 2.18 | 3.26 | 17.1
71 | COc1ccc(NC(=O)CSC2=C(C#N)C(c3ccco3)C(C(=O)Nc3nc4ccccc4s3)=C(C)N2)cc1 (stereo unspecified) | 14 | > 100 | > 40
72 | Clc1ccc(-c2ccc(C=Nc3ccc(N4CCOCC4)cc3)o2)cc1 | 7.5 | > 100 | 
73 | CCOC(=O)c1cnn(-c2nc3c(C)cccc3s2)c1C(F)(F)F | 54.6 | > 100 | > 40
74 | CC(C)Cn1c(N)c(C(=O)COC(=O)c2cnc(Cl)c(Cl)c2)c(=O)n(C)c1=O | 8.01 | 20.7 | > 40
75 | COC(=O)c1c(C)oc2ccc(OC(=O)c3cccs3)cc12 | 1.1 | 17.8 | 
76 | O=C(/C=C/c1ccccc1)CC(=O)c1ccccc1O | 23.7 | > 100 | > 40
77 | CC(C)(C)C1CCc2c(sc3nc(SCC(N)=O)nc(N)c23)C1 (stereo unspecified) | 24.8 | > 100 | > 40
78 | S=c1[nH]cnc2sc(-c3ccccc3)cc12 | 8.3 | > 100 | 
79 | CC1CCCN(c2ccc([N+](=O)[O-])s2)C1 (stereo unspecified) | 5.81 | 6.36 | 
80 | CN(C)CCCNc1cc(C(C)(C)C)nc2c(-c3ccccc3)cnn12 | 3.17 | 4.9 | 9.79
81 | CCCCn1c(=O)c(C(=O)Nc2nnc(C(C)C)s2)c(O)c2ccccc21 | 0.767 | 0.841 | > 40
82 | Oc1ccc2cc(Br)ccc2c1CN1CCCC1 | 22.2 | > 100 | > 40
